Data from US20240018163A1, “NEW THIAZOLOPYRIMIDINONE DERIVATIVES” (Hoffmann-La Roche Inc., priority 2021, published 2024).

system: mutant HTT protein (mHTT); test: Homogeneous Time Resolved Fluorescence (HTRF) assay for HTT lowering; format: cell-based; details: reduction of mHTT in Huntington patient human cells (GENEAe020-A cell line), 48 hours incubation, mean from three replicates
Protocol: Homogeneous Time Resolved Fluorescence for HTT lowering
The HTRF assay was adapted from Weiss et al. (Analytical Biochemistry Volume 395, Issue 1, 1 Dec. 2009, Pages 8-15 and Analytical Biochemistry Volume 410, 2011, Pages 304-306) to cells from GENEAe020-A cell line (https://hpscreg.eu/cell-line/GENEAe020-A).
Compounds were tested for the effect of mutant HTT levels in Huntington patient human cells (GENEAe020-A cell line) using Homogeneous Time Resolved Fluorescence (HTRF) directed towards mutant HTT protein (mHTT). The GENEAe020-A cell line was derived by Genea Biocells from human blastocysts of HD donors. After assessing viability, cells were plated into 384 well collagen coated plates in growth media. Once cells adhered, media was removed and test compounds dissolved in DMSO were diluted with buffer solution and added to the adherent cells. Controls included experiments with no cells, DMSO with no compound, and Hsp90 inhibitor control. Cells were incubated with compounds and controls for 48 hours. Then, the cells were lysed and transferred to an assay plate containing HTRF labeled monoclonal antibodies developed by Paul Patterson (Ko et al., Brain Research Bulletin, Volume 56, Numbers 3 and 4, 2001, Pages 319-329) which recognize specific areas of the HTT protein. The terbium labeled “donor” antibody (2B7) binds to the N-terminus of the HTT protein and the Alexa488 labeled “acceptor” antibody (MW1) is specific for the polyglutamine region of the protein. Binding of the acceptor labeled antibody is more efficient for the extended polyglutamine repeats of mutant HTT protein which translates into a signal boost which enables the specific measurement of mutant HTT protein level. The HTRF donor and acceptor detection reagents were incubated with the cell lysate and the ratio between the signals of the two fluorophores is indicative of the relative quantities of mHTT.

Structure (SMILES)	EC50 [nM]
Cc1cn2nc(-c3cc(=O)n4cc([C@H]5C[C@H]6CNC[C@@H](C5)O6)sc4n3)cc(C)c2n1 [Example 47, 7-(2,8-dimethylimidazo[1,2-b]pyridazin-6-yl)-2-[rac-(1R,5S)-9-oxa-3-azabicyclo[3.3.1]nonan-7-yl]thiazolo[3,2-a]pyrimidin-5-one]	330
Cc1cn2nc(-c3cc(=O)n4cc(N5CCNC6(CC6)C5)sc4n3)cc(C)c2n1 [Example 4, 2-(4,7-diazaspiro[2.5]octan-7-yl)-7-(2,8-dimethylimidazo[1,2-b]pyridazin-6-yl)thiazolo[3,2-a]pyrimidin-5-one]	3530
Cc1cn2nc(-c3cc(=O)n4cc([C@H]5[C@@H]6CNC[C@@H]65)sc4n3)cc(C)c2n1 [Example 55, 7-(2,8-dimethylimidazo[1,2-b]pyridazin-6-yl)-2-[rac-(1S,5R)-3-azabicyclo[3.1.0]hexan-6-yl]thiazolo[3,2-a]pyrimidin-5-one]	65
Cc1cn2nc(-c3cc(=O)n4cc(N5CCNCC5)sc4n3)cc(C(F)(F)F)c2n1 [Example 11, 7-[2-methyl-8-(trifluoromethyl)imidazo[1,2-b]pyridazin-6-yl]-2-piperazin-1-yl-thiazolo[3,2-a]pyrimidin-5-one]	19
Cc1cc(-c2cc(=O)n3cc([C@@H]4CCNC[C@@H]4F)sc3n2)nn2cc(Cl)nc12 [Example 43, 7-(2-chloro-8-methyl-imidazo[1,2-b]pyridazin-6-yl)-2-[(3R,4R)-3-fluoro-4-piperidyl]thiazolo[3,2-a]pyrimidin-5-one]	152
Cc1nc2c(C(F)(F)F)cc(-c3cc(=O)n4cc(N5CCNCC5)sc4n3)nc2o1 [Example 28, 7-[2-methyl-7-(trifluoromethyl)oxazolo[5,4-b]pyridin-5-yl]-2-piperazin-1-yl-thiazolo[3,2-a]pyrimidin-5-one]	691
COc1cc(-c2cc(=O)n3cc([C@@H]4CCNC[C@H]4F)sc3n2)nn2cc(C)nc12 [Example 45, 7-(8-methoxy-2-methyl-imidazo[1,2-b]pyridazin-6-yl)-2-[(3S,4R)-3-fluoro-4-piperidyl]thiazolo[3,2-a]pyrimidin-5-one]	97
Cc1cn2nc(-c3cc(=O)n4cc(N5CC[C@H](N6CCCC6)C5)sc4n3)cc(C)c2n1 [Example 21, 7-(2,8-dimethylimidazo[1,2-b]pyridazin-6-yl)-2-[(3S)-3-pyrrolidin-1-ylpyrrolidin-1-yl]thiazolo[3,2-a]pyrimidin-5-one]	4200
COc1cc(-c2cc(=O)n3cc([C@@]4(F)CCNC[C@@H]4F)sc3n2)nn2cc(C)nc12 [Example 59, 7-(8-methoxy-2-methyl-imidazo[1,2-b]pyridazin-6-yl)-2-[(3S,4R)-3,4-difluoro-4-piperidyl]thiazolo[3,2-a]pyrimidin-5-one]	428
Cc1cn2nc(-c3cc(=O)n4cc(N5CCN6CCC[C@H]6C5)sc4n3)cc(C)c2n1 [Example 9, 7-(2,8-dimethylimidazo[1,2-b]pyridazin-6-yl)-2-[(8aS)-3,4,6,7,8,8a-hexahydro-1H-pyrrolo[1,2-a]pyrazin-2-yl]thiazolo[3,2-a]pyrimidin-5-one]	796
COc1cc(-c2cc(=O)n3cc(C4(F)CCNCC4)sc3n2)nn2cc(C)nc12 [Example 42, 2-(4-fluoro-4-piperidyl)-7-(8-methoxy-2-methyl-imidazo[1,2-b]pyridazin-6-yl)thiazolo[3,2-a]pyrimidin-5-one]	53
Cc1cn2nc(-c3cc(=O)n4cc([C@H]5CCNC[C@@H]5F)sc4n3)cc(C)c2n1 [Example 39, 7-(2,8-dimethylimidazo[1,2-b]pyridazin-6-yl)-2-[(3R,4S)-3-fluoro-4-piperidyl]thiazolo[3,2-a]pyrimidin-5-one]	53
Cc1nc2c(C)cc(-c3cc(=O)n4cc(C5CCNCC5)sc4n3)nc2o1 [Example 30, 7-(2,7-dimethyloxazolo[5,4-b]pyridin-5-yl)-2-(4-piperidyl)thiazolo[3,2-a]pyrimidin-5-one]	40
COc1cc(-c2cc(=O)n3cc([C@H]4CCNC[C@H]4F)sc3n2)nn2cc(C)nc12 [Example 35, 7-(8-methoxy-2-methyl-imidazo[1,2-b]pyridazin-6-yl)-2-[(3S,4S)-3-fluoro-4-piperidyl]thiazolo[3,2-a]pyrimidin-5-one]	61
COc1cc(-c2cc(=O)n3cc([C@]4(F)CCNC[C@H]4F)sc3n2)nn2cc(C)nc12 [Example 56, 7-(8-methoxy-2-methyl-imidazo[1,2-b]pyridazin-6-yl)-2-[(3R,4S)-3,4-difluoro-4-piperidyl]thiazolo[3,2-a]pyrimidin-5-one]	50
Cc1cn2nc(-c3cc(=O)n4cc([C@]5(F)CCNC[C@H]5F)sc4n3)cc(C)c2n1 (racemic) [Example 53, 7-(2,8-dimethylimidazo[1,2-b]pyridazin-6-yl)-2-[rac-(3R,4S)-3,4-difluoro-4-piperidyl]thiazolo[3,2-a]pyrimidin-5-one]	132
Cc1cn2nc(-c3cc(=O)n4cc([C@@H]5CCNC[C@H]5F)sc4n3)cc(C)c2n1 [Example 38, 7-(2,8-dimethylimidazo[1,2-b]pyridazin-6-yl)-2-[(3S,4R)-3-fluoro-4-piperidyl]thiazolo[3,2-a]pyrimidin-5-one]	280
Cc1nc2c(F)cc(-c3cc(=O)n4cc(N5CCNCC5)sc4n3)cc2o1 [Example 5, 7-(4-fluoro-2-methyl-1,3-benzoxazol-6-yl)-2-piperazin-1-yl-thiazolo[3,2-a]pyrimidin-5-one]	499
COc1cc(-c2cc(=O)n3cc([C@]4(F)CCNC[C@@H]4F)sc3n2)nn2cc(C)nc12 (racemic) [Example 52, 7-(8-methoxy-2-methyl-imidazo[1,2-b]pyridazin-6-yl)-2-[rac-(3S,4S)-3,4-difluoro-4-piperidyl]thiazolo[3,2-a]pyrimidin-5-one]	237
Cc1cn2nc(-c3cc(=O)n4cc([C@]5(F)CCNC[C@@H]5F)sc4n3)cc(C)c2n1 (racemic) [Example 54, 7-(2,8-dimethylimidazo[1,2-b]pyridazin-6-yl)-2-[rac-(3S,4S)-3,4-difluoro-4-piperidyl]thiazolo[3,2-a]pyrimidin-5-one]	556
Cc1cn2nc(-c3cc(=O)n4cc([C@H]5CCNC[C@H]5F)sc4n3)cc(C)c2n1 [Example 33, 7-(2,8-dimethylimidazo[1,2-b]pyridazin-6-yl)-2-[(3S,4S)-3-fluoro-4-piperidyl]thiazolo[3,2-a]pyrimidin-5-one]	86
C=C(C)c1cc(-c2cc(=O)n3cc(N4CCNCC4)sc3n2)nn2cc(C)nc12 [Example 19, 7-(8-isopropenyl-2-methyl-imidazo[1,2-b]pyridazin-6-yl)-2-piperazin-1-yl-thiazolo[3,2-a]pyrimidin-5-one]	3000
COc1cc(-c2cc(=O)n3cc([C@@H]4CCNC5(CC5)C4)sc3n2)nn2cc(C)nc12 [Example 41, 7-(8-methoxy-2-methyl-imidazo[1,2-b]pyridazin-6-yl)-2-[(7R)-4-azaspiro[2.5]octan-7-yl]thiazolo[3,2-a]pyrimidin-5-one]	106
COc1cc(-c2cc(=O)n3cc([C@H]4C[C@H]5CNC[C@@H](C4)O5)sc3n2)nn2cc(C)nc12 [Example 49, 7-(8-methoxy-2-methyl-imidazo[1,2-b]pyridazin-6-yl)-2-[rac-(1R,5S)-9-oxa-3-azabicyclo[3.3.1]nonan-7-yl]thiazolo[3,2-a]pyrimidin-5-one]	200
Cc1cn2nc(-c3cc(=O)n4cc(N5C6CCC5CNC6)sc4n3)cc(C)c2n1 [Example 14, 2-(3,8-diazabicyclo[3.2.1]octan-8-yl)-7-(2,8-dimethylimidazo[1,2-b]pyridazin-6-yl)thiazolo[3,2-a]pyrimidin-5-one]	931
Cc1cc(-c2cc(=O)n3cc(C4CCNCC4)sc3n2)nn2cc(Cl)nc12 [Example 31, 7-(2-chloro-8-methyl-imidazo[1,2-b]pyridazin-6-yl)-2-(4-piperidyl)thiazolo[3,2-a]pyrimidin-5-one]	71
Cc1cn2nc(-c3cc(=O)n4cc(N5CCNC(C)(C)C5)sc4n3)cc(C)c2n1 [Example 3, 7-(2,8-dimethylimidazo[1,2-b]pyridazin-6-yl)-2-(3,3-dimethylpiperazin-1-yl)thiazolo[3,2-a]pyrimidin-5-one]	625
Cc1cn2nc(-c3cc(=O)n4cc(N5CCN6CCC[C@@H]6C5)sc4n3)cc(C(F)(F)F)c2n1 [Example 25, 7-[2-methyl-8-(trifluoromethyl)imidazo[1,2-b]pyridazin-6-yl]-2-[(8aR)-3,4,6,7,8,8a-hexahydro-1H-pyrrolo[1,2-a]pyrazin-2-yl]thiazolo[3,2-a]pyrimidin-5-one]	454
COc1cc(-c2cc(=O)n3cc([C@]4(F)CCNC[C@H]4F)sc3n2)nn2cc(C)nc12 (racemic) [Example 51, 7-(8-methoxy-2-methyl-imidazo[1,2-b]pyridazin-6-yl)-2-[rac-(3R,4S)-3,4-difluoro-4-piperidyl]thiazolo[3,2-a]pyrimidin-5-one]	102
